# Data: the supplement of paper PMC10307832
# Assays:
# Experiment in all cases: relative viability (nuclei count vs DMSO), 5 days (fraction); higher = more cells survive
# [1] = compound: C1=CC2=C(C=CC(=C2)C=C3C(=O)NC(=NCC4=CC=CS4)S3)N=C1 [RO-3306] + N=C(N)NC(=N)NCCc1ccccc1 [Phenformin] (partner 250 µM)
# How it was run: (§1)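 Five library-drug doses in √10 steps were combined with a fixed anchor-drug dose, or a single drug was given alone, by pin tool to lung cancer cell lines in 1536-well plates the day after seeding. Nuclei were stained and counted after 5 days. Relative viability is the nuclei count in treated wells over that in vehicle wells, taken as the median of duplicate plates.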
# [2] = compound: O=S(=O)(c1ccccc1)N(CC(F)(F)F)c1ccc(C(O)(C(F)(F)F)C(F)(F)F)cc1 + N=C(N)NC(=N)NCCc1ccccc1 [Phenformin] (partner 250 µM)
# How it was run: as §1
# [3] = compound: C1=CC2=C(C=CC(=C2)C=C3C(=O)NC(=NCC4=CC=CS4)S3)N=C1 [RO-3306] + CS(=O)(=O)CCNCc1ccc(-c2ccc3ncnc(Nc4ccc(OCc5cccc(F)c5)c(Cl)c4)c3c2)o1 [Lapatinib] (partner 2 µM)
# How it was run: as §1
# [4] = compound: C1=CC2=C(C=CC(=C2)C=C3C(=O)NC(=NCC4=CC=CS4)S3)N=C1 [RO-3306] + O=C(CCCCCCC(=O)Nc1ccccc1)NO [Vorinostat] (partner 1 µM)
# How it was run: as §1
Cell Line,relative viability ([1]; first compound 0.01 µM),relative viability ([1]; first compound 0.03162 µM),relative viability ([1]; first compound 0.1 µM),relative viability ([1]; first compound 0.3162 µM),relative viability ([1]; first compound 1 µM),relative viability ([2]; first compound 0.8 µM),relative viability ([2]; first compound 2.53 µM),relative viability ([2]; first compound 8 µM),relative viability ([3]; first compound 0.01 µM),relative viability ([3]; first compound 0.03162 µM),relative viability ([3]; first compound 0.1 µM),relative viability ([3]; first compound 0.3162 µM),relative viability ([3]; first compound 1 µM),relative viability ([4]; first compound 0.01 µM),relative viability ([4]; first compound 0.03162 µM),relative viability ([4]; first compound 0.1 µM),relative viability ([4]; first compound 0.3162 µM),relative viability ([4]; first compound 1 µM)
EPLC-272H,0.312,0.399,0.308,0.25,0.317,0.273,0.304,0.269,0.789,0.595,0.803,0.768,0.849,0.243,0.479,0.386,0.382,0.198
NCI-H2023,0.459,0.38,0.398,0.403,0.356,0.472,0.369,0.311,0.769,0.645,0.822,1.04,0.683,0.684,0.524,0.651,0.806,0.5
NCI-H358,0.363,0.265,0.282,0.289,0.239,0.265,0.236,0.261,0.5,0.431,0.39,0.495,0.425,0.821,0.603,0.596,0.638,0.524
NCI-H1734,0.355,0.276,0.344,0.409,0.368,0.562,0.45,0.354,1.06,0.834,1.03,1.07,0.808,0.802,0.631,0.733,0.828,0.734
COR-L23,0.475,0.391,0.455,0.409,0.435,0.452,0.451,0.427,0.708,,0.942,1.06,1.18,0.51,0.412,0.489,0.394,0.344
NCI-H596,0.77,0.63,0.799,0.758,0.966,0.805,0.717,0.667,0.892,0.83,1.08,1.07,1.17,0.589,0.512,0.533,0.726,0.713
BEN,0.298,0.266,0.26,0.252,0.263,0.262,0.249,0.283,0.726,0.759,0.754,0.8,0.744,0.565,0.543,0.562,0.595,0.55
ABC-1,0.238,0.222,0.268,0.27,0.232,0.238,0.246,0.335,1.25,1.28,1.17,1.16,1.05,1.21,1,1.03,1.13,0.781
HCC-15,0.519,0.333,0.459,0.464,0.423,0.469,0.405,0.422,0.919,0.779,0.84,0.893,0.592,0.923,0.712,0.898,0.854,0.773
NCI-H460,0.635,0.365,0.496,0.555,0.544,0.613,0.469,0.451,1.64,,0.958,1.18,1.25,1.19,0.517,0.677,0.976,0.448
EMC-BAC-2,0.516,0.401,0.536,0.497,0.508,0.701,0.493,0.557,0.943,0.722,0.916,0.892,0.871,0.417,0.354,0.351,0.534,0.161
NCI-H520,0.562,0.422,0.425,0.491,0.588,0.825,0.568,0.708,1.01,0.638,0.806,0.734,0.754,0.779,0.589,0.676,0.693,0.664
NCI-H1993,0.483,0.552,0.503,0.517,0.499,0.522,0.529,0.469,,0.747,0.74,0.795,0.839,0.82,0.707,0.751,0.822,0.716
NCI-H2126,0.504,0.544,0.513,0.508,0.513,0.578,0.533,0.518,0.644,0.719,0.742,0.76,0.747,0.747,0.679,0.812,0.879,0.733
LK-2,0.445,,0.312,0.499,0.344,0.505,0.66,0.555,0.931,0.705,0.886,0.88,0.985,0.293,0.248,0.324,0.275,0.295
SW 1573,0.405,,0.363,0.341,0.351,0.47,0.37,0.401,1.11,1.01,1.17,1.12,0.947,0.67,0.598,0.738,0.715,0.763
NCI-H322M,0.768,0.661,0.724,0.777,0.791,0.882,0.812,0.819,0.576,0.595,0.575,0.586,0.561,0.878,0.859,0.807,0.868,0.584
NCI-H1793,0.346,0.347,0.397,0.366,0.315,0.447,0.332,0.285,0.794,0.409,0.641,0.753,0.636,0.985,,0.58,0.701,0.721

Cell Line,relative viability ([1]; first compound 0.01 µM),relative viability ([1]; first compound 0.03162 µM),relative viability ([1]; first compound 0.1 µM),relative viability ([1]; first compound 0.3162 µM),relative viability ([1]; first compound 1 µM),relative viability ([2]; first compound 0.8 µM),relative viability ([2]; first compound 2.53 µM),relative viability ([2]; first compound 8 µM),relative viability ([3]; first compound 0.01 µM),relative viability ([3]; first compound 0.03162 µM),relative viability ([3]; first compound 0.1 µM),relative viability ([3]; first compound 0.3162 µM),relative viability ([3]; first compound 1 µM),relative viability ([4]; first compound 0.01 µM),relative viability ([4]; first compound 0.03162 µM),relative viability ([4]; first compound 0.1 µM),relative viability ([4]; first compound 0.3162 µM),relative viability ([4]; first compound 1 µM)
EKVX,0.245,0.196,0.218,0.217,0.22,0.226,0.199,0.228,0.173,0.187,0.237,0.192,0.148,0.75,,0.739,0.663,0.712
NCI-H1355,0.429,,0.516,0.422,0.404,0.467,0.397,0.438,1.15,0.926,0.973,1.04,0.886,0.694,0.538,0.644,0.6,0.591
CAL-12T,0.56,0.445,0.511,0.597,0.674,0.512,0.471,0.464,0.61,,,0.73,0.591,1.08,0.66,0.647,0.809,0.694
NCI-H2085,0.688,0.604,0.655,0.683,0.654,0.805,0.695,0.741,0.726,0.746,0.798,0.727,0.757,0.83,0.733,0.775,0.781,0.8
LOU-NH91,0.808,0.709,0.681,0.649,0.694,0.607,0.562,0.661,0.692,0.739,0.811,0.771,0.677,0.857,0.828,0.854,0.871,0.866
NCI-H1975,0.412,0.392,0.378,0.405,0.384,0.452,0.439,0.414,1.05,0.559,0.787,0.919,0.752,0.608,0.624,0.685,0.701,0.69
NCI-H23,0.734,0.762,0.737,0.745,0.668,0.828,0.743,0.699,1,1.02,1.05,1.12,0.748,0.828,,0.547,0.55,0.501
HCC-366,0.644,0.547,0.65,0.613,0.63,0.693,0.568,0.48,1.1,0.939,0.91,1.09,0.759,0.454,0.279,0.25,0.378,0.308
HCC-827,0.406,0.308,0.407,0.381,0.408,0.448,0.411,0.4,0.226,0.21,0.17,0.214,0.17,0.946,0.7,0.881,0.789,0.859
NCI-H2347,0.347,0.374,0.384,0.485,0.384,0.462,0.38,0.342,0.914,0.932,0.969,0.897,0.91,0.539,0.541,0.51,0.532,0.701
HCC-44,0.226,0.21,0.163,0.185,0.196,0.198,0.185,0.185,0.976,0.953,0.957,1.07,0.719,1.1,1.15,1.08,1.13,1.17
PC-3 [JPC-3],0.481,0.517,0.467,0.473,0.433,0.441,0.551,0.501,0.469,0.445,0.389,0.439,0.435,0.649,0.629,0.648,0.735,0.524
NCI-H1651,0.363,0.254,0.341,0.338,0.251,0.358,0.292,0.268,0.839,0.648,0.77,0.972,0.644,0.559,0.535,0.529,0.544,0.511
NCI-H3122,0.419,0.612,0.397,0.391,0.665,0.345,0.334,0.338,1.1,1,1.02,0.997,0.827,1.07,0.825,0.993,1.19,1.06
LC-2-ad,0.538,0.476,0.492,0.614,0.562,0.626,0.584,0.633,0.949,0.979,0.868,0.948,0.883,0.773,0.635,0.78,0.695,0.626
NCI-H650,0.408,0.411,0.445,0.467,0.457,0.396,0.465,0.509,0.867,0.728,0.774,1.06,1.01,0.406,0.376,0.41,0.428,0.415
LXF-289,0.52,0.507,0.506,0.543,0.428,0.504,0.475,0.463,0.918,0.919,0.947,0.893,0.787,0.789,0.807,0.695,0.749,0.744
HCC-78,0.705,0.586,0.642,0.723,0.696,0.631,0.612,0.581,0.733,0.704,0.732,0.728,0.583,0.428,0.457,0.367,0.494,0.418
